Earlier results on 1 molecule are cited in PMC4008333 (Cancer chemotherapy and pharmacology, 2012).

For the data set the following is noted: historical model; point estimate (% RSE).

Starred links: 1 amine or outer side, 2 acyl side, 3 side chain; linkers in the order of their positions; H or OH if unused. Positions of bridges follow the written chain, without caps; N, C: chain ends. Non-standard residues stand in square brackets, D forms with d. Residues, ends and D or L forms follow the SMILES beside them. Chains are numbered I, II in the order given. Actinocin(9to1) = Cc1c2oc3c(C)ccc(C(=O)[*:1])c3nc-2c(C(=O)[*:2])c(N)c1=O; NMeV = CN[C@H](C(=O)O)C(C)C; Sar = CNCC(=O)O

As for `Cc1c2oc3c(C)ccc(C(=O)N[C@@H]4C(=O)N[C@H](C(C)C)C(=O)N5CCC[C@H]5C(=O)N(C)CC(=O)N(C)[C@@H](C(C)C)C(=O)O[C@@H]4C)c3nc-2c(C(=O)N[C@@H]2C(=O)N[C@H](C(C)C)C(=O)N3CCC[C@H]3C(=O)N(C)CC(=O)N(C)[C@@H](C(C)C)C(=O)O[C@@H]2C)c(N)c1=O` [AMD, actinomycin-D] (I: T[dV]P[Sar][NMeV] / II: T[dV]P[Sar][NMeV]; ester I:1-I:C, II:1-II:C; linker I:N-II:N via Actinocin(9to1)), the Q2 is reported as 11.4 (58.8) L/h/70 kg, the Q3 is recorded as 25.2 (23.3) L/h/70 kg, the V1 was 3.56 (39.3) L/70 kg and the V2 is listed as 16.1 (80.7) L/70 kg. Also, the V3 is listed as 367 (19.7) L/70 kg.
